Patent US10053477B2, “Spirocyclic aryl phosphorus oxide and aryl phosphorus sulfide” (QILU PHARMACEUTICAL CO., LTD., priority 2014, dated 2018)
pIC50: −log10 of the molar value. One block for each molecule: values may come before it.

Columns and labels:
ALK C1156Y = molecular target: T1, ALK C1156Y (Homo sapiens, UniProt Q9UM73, C1156Y); test: ALK C1156Y enzymatic inhibition (HTRF); type: biochemical; conditions: 30 μM ATP
T1 construct: purchased Carna Biosciences (Japan)
Procedure: (§1) Enzyme: ALK wild-type, ALK C1156Y and ALK L1196M supplied by Carna Biosciences (Japan), EGFR T790M/L858R supplied by Life technology (Madison, Wis.).
(§2) HTRF kit: supplied by Cis-Bio International, with Eu-marked TK1 antibody, XL665- and biotin-labelled TK1 polypeptide substrates.
Reaction buffer: 50 mM Hepes (pH7.5), 10 mM MgCl2, 0.01 mM NaV3VO4. […] Reaction was reacted at room temperature for 60 minutes.
(§3) Incubation was carried out for 60 minutes at room temperature. Detection was by Envision.

[1] = test system: LU-01-0015 xenotransplantation (PDX) from lung cancer patients; test: In vivo efficacy, LU-01-0015 xenotransplantation (PDX) from lung cancer patients; parameters: species or system BALB/c nude mice; conditions: 25 mg/kg orally everyday
Source text: BALB/c nude mice, female, 6 to 8 weeks, about 18 to 22 g bodyweight, was kept in a special environment without pathogens, and a single ventilated cage (5 mice per cage). Beddings and water in all the cages were disinfected before use. […] 80 mice were supplied by Shanghai BK Laboratory Animal Co., LTD for study. Each mouse was subcutaneously implanted tumor tissue (20-30 mm^3) at right flank for growth of tumor. When the average tumor volume reached about 250-300 mm^3, the assay started. Test compounds were delivered orally everyday, 25 mg/kg. Tumor size was measured with two-dimensional caliper every 3 days, size was recorded by mm^3, and calculated by the following formula: V=V=0.5a×b2, where a and b are respectively the long diameter and short diameter length of the tumor. The antitumor efficacy was determined by dividing the average increased tumor volume in compound-treated animal by the average increased tumor volume in untreated animal.

EGFR T790M/L858R = molecular target: T2, EGFR T790M/L858R (Homo sapiens, UniProt P00533, L858R/T790M); test: EGFR T790M/L858R enzymatic inhibition (HTRF); type: biochemical; conditions: 20 μM ATP
T2 construct: purchased Life technology (Madison, Wis.)
T2 sequence (P00533 25-1210 T790M/L858R): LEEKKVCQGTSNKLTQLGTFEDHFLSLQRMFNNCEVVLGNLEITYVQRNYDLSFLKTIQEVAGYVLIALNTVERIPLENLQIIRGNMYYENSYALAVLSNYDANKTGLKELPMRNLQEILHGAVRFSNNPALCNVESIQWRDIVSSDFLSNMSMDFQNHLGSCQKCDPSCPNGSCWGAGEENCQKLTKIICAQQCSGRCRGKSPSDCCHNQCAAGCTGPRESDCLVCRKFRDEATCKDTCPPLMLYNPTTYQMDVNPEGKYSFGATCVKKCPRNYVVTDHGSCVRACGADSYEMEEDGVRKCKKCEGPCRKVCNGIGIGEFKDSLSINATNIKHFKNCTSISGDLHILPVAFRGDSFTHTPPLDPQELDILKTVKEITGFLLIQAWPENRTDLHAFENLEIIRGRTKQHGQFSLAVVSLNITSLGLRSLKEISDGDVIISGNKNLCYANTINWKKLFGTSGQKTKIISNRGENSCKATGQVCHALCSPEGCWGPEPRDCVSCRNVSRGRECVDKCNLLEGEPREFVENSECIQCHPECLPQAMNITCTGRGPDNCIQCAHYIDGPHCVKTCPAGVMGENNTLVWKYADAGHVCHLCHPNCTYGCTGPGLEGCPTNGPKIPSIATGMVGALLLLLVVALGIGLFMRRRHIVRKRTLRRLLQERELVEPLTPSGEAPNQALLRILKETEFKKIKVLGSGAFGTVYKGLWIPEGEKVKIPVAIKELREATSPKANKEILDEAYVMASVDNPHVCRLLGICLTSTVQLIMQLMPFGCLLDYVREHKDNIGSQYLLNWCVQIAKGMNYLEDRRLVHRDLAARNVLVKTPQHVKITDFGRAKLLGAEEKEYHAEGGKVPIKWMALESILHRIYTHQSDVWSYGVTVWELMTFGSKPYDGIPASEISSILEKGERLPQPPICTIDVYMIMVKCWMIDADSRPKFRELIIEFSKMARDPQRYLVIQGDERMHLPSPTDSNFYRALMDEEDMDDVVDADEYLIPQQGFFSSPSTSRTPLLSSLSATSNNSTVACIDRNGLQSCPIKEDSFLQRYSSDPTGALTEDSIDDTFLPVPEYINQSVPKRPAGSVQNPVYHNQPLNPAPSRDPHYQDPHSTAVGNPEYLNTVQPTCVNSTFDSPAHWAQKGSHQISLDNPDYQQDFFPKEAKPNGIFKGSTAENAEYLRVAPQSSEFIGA
Procedure: as §1, §2
The compound to be tested is diluted at a gradient by 3 times thereby giving 11 gradients starting from […] to 0.017 nM for the final concentration.
10 μl EGFR T790M/L858R enzyme reaction mixture system: 0.08 nM EGFR T790M/L858R, 1 μM biotin-TK1 peptide, 20 μM ATP. Reaction buffer: 50 mM Hepes (pH7.5), 10 mM MgCl2, 0.01 mM NaV3VO4. The reaction plate was white Proxiplate 384-Plus plate (PerkinElmer). Reaction was reacted at room temperature for 60 minutes.
Detecting reaction: 10 μl testing reagent was added to the reaction plate, the final concentration of Antibody was 2 nM, XL665 was 62.5 nM. Incubation was carried out for 60 minutes at room temperature. Detection was by Envision.

ALK wild-type = molecular target: T3, ALK wild-type (Homo sapiens, UniProt Q9UM73); test: ALK wild-type enzymatic inhibition (HTRF); type: biochemical; conditions: 30 μM ATP
T3 construct: purchased Carna Biosciences (Japan)
T3 sequence (Q9UM73 19-1620): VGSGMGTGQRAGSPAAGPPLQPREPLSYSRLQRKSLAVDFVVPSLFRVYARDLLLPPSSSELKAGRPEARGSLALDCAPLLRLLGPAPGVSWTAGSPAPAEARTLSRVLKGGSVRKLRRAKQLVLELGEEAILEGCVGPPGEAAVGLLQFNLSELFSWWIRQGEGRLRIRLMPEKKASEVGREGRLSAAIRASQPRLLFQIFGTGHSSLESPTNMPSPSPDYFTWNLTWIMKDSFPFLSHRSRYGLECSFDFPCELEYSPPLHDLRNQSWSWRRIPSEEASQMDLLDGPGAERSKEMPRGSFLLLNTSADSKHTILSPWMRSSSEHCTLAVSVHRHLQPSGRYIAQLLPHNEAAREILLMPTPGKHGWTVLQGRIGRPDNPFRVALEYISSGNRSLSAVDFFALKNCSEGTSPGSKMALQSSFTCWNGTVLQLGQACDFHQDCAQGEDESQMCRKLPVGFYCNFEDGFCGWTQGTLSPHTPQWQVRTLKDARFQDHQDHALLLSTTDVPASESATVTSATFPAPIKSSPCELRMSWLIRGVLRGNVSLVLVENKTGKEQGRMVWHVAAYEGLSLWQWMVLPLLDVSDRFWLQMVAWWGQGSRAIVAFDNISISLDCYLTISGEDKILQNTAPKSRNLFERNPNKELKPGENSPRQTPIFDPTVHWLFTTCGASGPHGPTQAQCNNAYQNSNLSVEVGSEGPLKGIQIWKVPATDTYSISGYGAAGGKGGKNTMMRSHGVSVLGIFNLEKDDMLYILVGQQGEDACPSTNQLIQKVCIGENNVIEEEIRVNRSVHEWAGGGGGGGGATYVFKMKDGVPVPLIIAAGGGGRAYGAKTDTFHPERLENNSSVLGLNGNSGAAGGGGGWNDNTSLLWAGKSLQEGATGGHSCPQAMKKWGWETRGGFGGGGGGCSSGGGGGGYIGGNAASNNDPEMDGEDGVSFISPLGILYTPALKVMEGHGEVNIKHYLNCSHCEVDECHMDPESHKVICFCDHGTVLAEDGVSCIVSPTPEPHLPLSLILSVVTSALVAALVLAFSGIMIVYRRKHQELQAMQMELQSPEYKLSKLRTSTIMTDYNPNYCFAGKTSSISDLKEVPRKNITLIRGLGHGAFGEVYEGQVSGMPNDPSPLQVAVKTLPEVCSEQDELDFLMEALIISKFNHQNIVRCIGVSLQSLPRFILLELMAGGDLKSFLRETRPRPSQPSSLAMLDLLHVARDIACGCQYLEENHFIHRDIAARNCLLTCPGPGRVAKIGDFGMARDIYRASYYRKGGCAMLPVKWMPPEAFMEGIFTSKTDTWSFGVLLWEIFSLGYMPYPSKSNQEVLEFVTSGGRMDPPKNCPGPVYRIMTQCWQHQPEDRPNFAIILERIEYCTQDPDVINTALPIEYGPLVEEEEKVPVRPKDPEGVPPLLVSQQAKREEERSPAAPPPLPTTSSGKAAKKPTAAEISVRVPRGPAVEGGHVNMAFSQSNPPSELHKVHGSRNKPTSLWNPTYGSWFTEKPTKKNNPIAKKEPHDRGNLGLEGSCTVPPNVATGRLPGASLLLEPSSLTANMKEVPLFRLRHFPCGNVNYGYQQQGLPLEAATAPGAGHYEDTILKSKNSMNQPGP
Procedure: as §1, §2
10 μl wild-type ALK enzyme reaction mixture system: 0.5 nM wild-type ALK, 1 μM biotin-TK1 peptide, 30 μM ATP. Reaction buffer: 50 mM Hepes (pH7.5), 10 mM MgCl2, 0.01 mM NaV3VO4.
as §3

ALK L1196M = molecular target: T4, ALK L1196M (Homo sapiens, UniProt Q9UM73, L1196M); test: ALK L1196M enzymatic inhibition (HTRF); type: biochemical; conditions: 30 μM ATP
T4 construct: purchased Carna Biosciences (Japan)
T4 sequence (Q9UM73 19-1620 L1196M): as the sequence (Q9UM73 19-1620) above, with L1178M counted along it
Procedure: as §1, §2
Reaction buffer: 50 mM Hepes (pH7.5), 10 mM MgCl2, 0.01 mM NaV3VO4.
as §3

[2] = test system: LU-01-0319 Crizotinib resistance model; test: In vivo anti-tumor efficacy, Crizotinib resistant LU-01-0319 xenotransplantation (PDX) tumor; parameters: species or system BALB/c nude mice
Source text: LU-01-0319 xenotransplantation tumor models initially obtained from clinical sample through surgical resection were implanted into nude mice, which was defined as a batch of P0 (LU-01-0319-P0). The next batch was defined as P1 (LU-01-0319-P1) which was implanted tumors from P0. FP3 was regained from P2, the next batch was defined as FP4 which was implanted tumors from FP3. […] The continuous increasing tumors were defined as LU-01-0319 antitumor models. BALB/c nude mice, female, 6 to 8 weeks, about 18 to 22 g bodyweight, 75 mice were used for study, supplied by Shanghai BK Laboratory Animal Co., LTD. Tumour biopsies (about 30 mm^3) of LU-01-0319R FP6 were implanted subcutaneously on right side of each mouse for growth of tumor. […] Dose of Crizotinib was appropriately varied depending on the tumor size. When average tumor volume reached about ˜500 mm^3, the assay began. Once a day the compounds to be tested were orally administered. Tumor size were measured twice a week with a caliper at two dimensions, and calculated with the following formula: V=0.5a×b2, where a and b are respectively long diameter and short diameter of the tumor. The antitumor efficacy was determined by dividing the average increased tumor volume in compound-treated animal by the average increased tumor volume in untreated animal.

[3] = test system: LU-01-0319 xenotransplantation (PDX) from lung cancer patients; test: In vivo efficacy, LU-01-0319 xenotransplantation (PDX) from lung cancer patients; parameters: species or system BALB/c nude mice; conditions: 10 mg/kg orally everyday
Source text: BALB/c nude mice, female, 6 to 8 weeks, about 18 to 22 g bodyweight, was kept in a special environment without pathogens, and a single ventilated cage (5 mice per cage). Beddings and water in all the cages were disinfected before use. All the animal had free access to standard authorized commercially available lab diet. 80 mice were supplied by Shanghai BK Laboratory Animal Co., LTD for study. Each mouse was subcutaneously implanted tumor tissue (20-30 mm^3) at right flank for growth of tumor. When the average tumor volume reached about 250-300 mm^3, the assay started. Test compounds were delivered orally everyday, 10 mg/kg. Tumor size was measured with two-dimensional caliper every 3 days, size was recorded by mm^3, and calculated by the following formula: V=V=0.5a×b2, where a and b are respectively the long diameter and short diameter length of the tumor. The antitumor efficacy was determined by dividing the average increased tumor volume in compound-treated animal by the average increased tumor volume in untreated animal.

T1 sequence (Q9UM73 19-1620 C1156Y): as the sequence (Q9UM73 19-1620) above, with C1138Y counted along it

pIC50 (ALK C1156Y): 7.00 to 9.00
pIC50 (EGFR T790M/L858R): 7.00 to 9.00
pIC50 (ALK wild-type): 7.00 to 9.00
pIC50 (ALK L1196M): 7.00 to 9.00
Structure (SMILES): COc1cc(N2CCC3(CC2)CN(C)C3)ccc1Nc1ncc(Cl)c(Nc2ccccc2P(C)(C)=O)n1 [Compound 5, (2-((5-Chloro-2-((2-methoxy-4-(2-methyl-2,7-diazaspiro[3.5]nonan-7-yl)phenyl)amino)pyrimidin-4-yl)amino)phenyl)dimethyl phosphine oxide]
Tumor volume ([1]; 3 days): 259 mm^3
Tumor volume ([1]; 6 days): 214 mm^3
Tumor volume ([1]; 9 days): 172 mm^3
Tumor volume ([1]; 12 days): 117 mm^3
Tumor volume ([1]; 16 days): 104 mm^3
Tumor volume ([1]; 19 days): 123 mm^3
Tumor volume ([1]; 23 days): 124 mm^3

pIC50 (ALK C1156Y): 7.00 to 9.00
pIC50 (EGFR T790M/L858R): 7.00 to 9.00
pIC50 (ALK wild-type): 7.00 to 9.00
pIC50 (ALK L1196M): 7.00 to 9.00
Structure (SMILES): COc1cc(N2CCC3(CCN(C)CC3)CC2)ccc1Nc1ncc(Cl)c(Nc2ccccc2P(C)(C)=O)n1 [Compound 9, (2-((5-Chloro-2-((2-methoxy-4-(9-methyl-3,9-diazaspiro[5.5]undecan-3-yl)phenyl)amino)pyrimidin-4-yl)amino)phenyl)dimethyl phosphine oxide]
Tumor volume ([1]; 3 days): 158 mm^3
Tumor volume ([1]; 6 days): 108 mm^3
Tumor volume ([1]; 9 days): 82 mm^3
Tumor volume ([1]; 12 days): 58 mm^3
Tumor volume ([1]; 16 days): 48 mm^3
Tumor volume ([1]; 19 days): 46 mm^3
Tumor volume ([1]; 23 days): 43 mm^3
Tumor volume ([2]; 0 day, dosage 3 mg/Kg orally once a day): 502 mm^3
Tumor volume ([2]; 0 day, dosage 10 mg/Kg orally once a day): 502 mm^3
Tumor volume ([2]; 3 days, dosage 3 mg/Kg orally once a day): 722 mm^3
Tumor volume ([2]; 3 days, dosage 10 mg/Kg orally once a day): 557 mm^3
Tumor volume ([2]; 7 days, dosage 3 mg/Kg orally once a day): 859 mm^3
Tumor volume ([2]; 7 days, dosage 10 mg/Kg orally once a day): 416 mm^3
Tumor volume ([2]; 10 days, dosage 3 mg/Kg orally once a day): 1101 mm^3
Tumor volume ([2]; 10 days, dosage 10 mg/Kg orally once a day): 261 mm^3
Tumor volume ([2]; 13 days, dosage 3 mg/Kg orally once a day): 1218 mm^3
Tumor volume ([2]; 13 days, dosage 10 mg/Kg orally once a day): 196 mm^3
Tumor volume ([2]; 17 days, dosage 3 mg/Kg orally once a day): 1441 mm^3
Tumor volume ([2]; 17 days, dosage 10 mg/Kg orally once a day): 133 mm^3
Tumor volume ([2]; 19 days, dosage 3 mg/Kg orally once a day): 1521 mm^3
Tumor volume ([2]; 19 days, dosage 10 mg/Kg orally once a day): 102 mm^3
Tumor volume ([3]; 0 days): 371 mm^3
Tumor volume ([3]; 2 days): 359 mm^3
Tumor volume ([3]; 6 days): 369 mm^3
Tumor volume ([3]; 9 days): 301 mm^3
Tumor volume ([3]; 13 days): 305 mm^3
Tumor volume ([3]; 16 days): 291 mm^3
Tumor volume ([3]; 20 days): 203 mm^3
Tumor volume ([3]; 23 days): 172 mm^3

pIC50 (ALK C1156Y): 6.00 to 7.00
pIC50 (EGFR T790M/L858R): 7.00 to 9.00
pIC50 (ALK wild-type): 6.00 to 7.00
pIC50 (ALK L1196M): 6.00 to 7.00
Structure (SMILES): COc1cc(N2CCC3(CCN(C)CC3)CC2)ccc1Nc1ncnc(Nc2ccccc2P(C)(C)=O)n1 [Compound 16, (2-((4-((2-Methoxy-4-(9-methyl-3,9-diazaspiro[5.5]undecan-3-yl)phenyl)amino)-1,3,5-triazin-2-yl)amino)phenyl)dimethyl phosphine oxide]

pIC50 (ALK C1156Y): 7.00 to 9.00
pIC50 (EGFR T790M/L858R): 7.00 to 9.00
pIC50 (ALK wild-type): 7.00 to 9.00
pIC50 (ALK L1196M): 7.00 to 9.00
Structure (SMILES): COc1cc(N2CCC3(CCN(C)CC3)CC2)ccc1Nc1nc(Nc2ccccc2P(C)(C)=O)c2cc[nH]c2n1 [Compound 17, (2-((2-(amino)-7H-pyrrolo[2,3-D](2-methoxy-4-(9-methyl-3,9-diazaspiro[5.5]undecan-3-yl)phenyl)pyrimidin-4-yl)amino)phenyl)dimethyl phosphine oxide]

pIC50 (ALK C1156Y): 7.00 to 9.00
pIC50 (EGFR T790M/L858R): 7.00 to 9.00
pIC50 (ALK wild-type): 7.00 to 9.00
pIC50 (ALK L1196M): 7.00 to 9.00
Structure (SMILES): COc1cc(N2CCC3(CCC(N(C)C)CC3)CC2)ccc1Nc1ncc(Cl)c(Nc2ccccc2P(C)(C)=O)n1 [Compound 14, (2-((5-Chloro-2-((4-(9-(dimethylamino)-3-azaspiro[5.5]undecan-3-yl)-2-methoxyphenyl)amino)pyrimidin-4-yl)amino)phenyl)dimethyl phosphine oxide]

pIC50 (ALK C1156Y): 6.00 to 7.00
pIC50 (EGFR T790M/L858R): 6.00 to 7.00
pIC50 (ALK wild-type): 7.00 to 9.00
pIC50 (ALK L1196M): 6.00 to 7.00
Structure (SMILES): COc1cc(N2CCC3(CN(C)C3)C2)ccc1Nc1ncc(Cl)c(Nc2ccccc2P(C)(C)=O)n1 [Compound 7, (2-((5-Chloro-2-((2-methoxy-4-(2-methyl-2,6-diazaspiro[3.4]octan-6-yl)phenyl)amino)pyrimidin-4-yl)amino)phenyl)dimethyl phosphine oxide]

pIC50 (ALK C1156Y): 7.00 to 9.00
pIC50 (EGFR T790M/L858R): 7.00 to 9.00
pIC50 (ALK wild-type): 7.00 to 9.00
pIC50 (ALK L1196M): 7.00 to 9.00
Structure (SMILES): COc1cc(N2CCC3(CC2)CC(N(C)C)C3)ccc1Nc1ncc(Cl)c(Nc2ccccc2P(C)(C)=O)n1 [Compound 13, (2-((5-Chloro-2-((4-(2-(dimethylamino)-7-azaspiro[3.5]nonan-7-yl)-2-methoxyphenyl)amino)pyrimidin-4-yl)amino)phenyl)dimethyl phosphine oxide]

pIC50 (ALK C1156Y): 7.00 to 9.00
pIC50 (EGFR T790M/L858R): 6.00 to 7.00
pIC50 (ALK wild-type): 7.00 to 9.00
pIC50 (ALK L1196M): 7.00 to 9.00
Structure (SMILES): COc1cc(N2CCC3(CCN(C)CC3)CC2)ncc1Nc1ncc(Cl)c(Nc2ccccc2P(C)(C)=O)n1 [Compound 24, (2-((5-Chloro-2-((4-methoxy-6-(9-methyl-3,9-diazaspiro[5.5]undecan-3-yl)pyridin-3-yl)amino)pyrimidin-4-yl)amino)phenyl)dimethyl phosphine oxide]
